Like-named read-outs stand apart in the source and are kept apart here. One block for each compound: values may come before it.
Tests used:
[1] = bioavailability / Biopharmaceutics Classification System class
[2] = First-in-human clinical trial NCT03536728 Part 1: plasma pharmacokinetics and tolerability of oral AMXT 1501 dicaprate and DFMO
[3] = clinical; conditions: human, in vivo, po
[4] = mouse, in vivo
[5] = system: cancer cells; assay: in vitro EC50 against cancer cells; type: cell-based
[6] = in vivo; conditions: BALB/c, mouse, tumor, subcutaneous, 2.5 mg/kg
[7] = water solubility; type: physicochemical

SMILES: CCCCCCCCCC(=O)O.CCCCCCCCCC(=O)O.CCCCCCCCCCCCCCCC(=O)NCCCC[C@@H](N)C(=O)NCCCNCCCCNCCCN [AMXT 1501 dicaprate]
bioavailability [1]: low

SMILES: CCCCCCCCCCCCCCCC(=O)NCCCC[C@@H](N)C(=O)NCCCNCCCCNCCCN [AMXT 1501, D-lys(palmitoyl)-spermine]
duration of plasma levels ([2]; Cohort 5, over the 24-hour dosing time increment): sustained over the 24-hour dosing time increment | adverse effects observed in patients ([2]; Part 1 patients, mainly gastrointestinal (nausea and diarrhea)): modest Grades 1 and 2 adverse effects | Cmax ([2]; human, in vivo): < 1000 ng/mL | mean AMXT 1501 exposure versus dose ([2]; single or repeat PO dosing, dose levels of 160 mg AMXT 1501 and higher): increased in a dose-dependent manner | Cmax [3]: 794 ng/mL | AMXT 1501 tumor AUC [4]: 152,000 hr*ng/mL | EC50 ([5]; equivalent of 50 nM, read-out: plasma concentration equivalent to in vitro EC50): 0.028 µg/mL | EC50 ([5]; read-out: in vitro EC50 against cancer cells): 50 nM | Kp [6]: 14

water solubility [7]: high
SMILES: NCCCC(N)(C(=O)O)C(F)F (centres unmarked) [DFMO, difluoromethylornithine]

From patent US11865095B2, “Combination drug substance of polyamine transport inhibitor and DFMO” (Aminex Therapeutics, Inc., priority 2020, dated 2024)
